Laboratory results reported in patent US11319298B2 (Merck Sharp & Dohme Corp., priority 2016, dated 2022).

Target: T1, human M4 muscarinic acetylcholine receptor (Homo sapiens, UniProt P08173)
T1 construct: expressed in transfected cells; host or cells: CHO-K1
T1 sequence (P08173 1-479): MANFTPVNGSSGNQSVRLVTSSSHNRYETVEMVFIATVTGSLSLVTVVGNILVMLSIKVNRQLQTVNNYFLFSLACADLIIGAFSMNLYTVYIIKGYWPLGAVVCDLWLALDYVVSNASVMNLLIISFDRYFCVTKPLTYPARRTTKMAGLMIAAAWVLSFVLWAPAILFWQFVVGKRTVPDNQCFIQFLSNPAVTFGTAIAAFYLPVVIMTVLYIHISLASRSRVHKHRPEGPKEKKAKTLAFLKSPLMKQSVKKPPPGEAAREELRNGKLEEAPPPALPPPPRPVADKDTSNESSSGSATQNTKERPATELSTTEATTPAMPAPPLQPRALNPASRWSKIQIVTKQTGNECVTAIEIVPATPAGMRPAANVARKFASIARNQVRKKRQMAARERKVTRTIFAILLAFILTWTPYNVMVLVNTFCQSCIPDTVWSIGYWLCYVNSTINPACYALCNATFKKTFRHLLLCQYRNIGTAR
Test: human FLIPR-based M4 PAM assay, CHO-K1 cells stably transfected with human M4 receptor and chimeric G-protein Gαqi5
Type: cell-based
Details: inflection point (IP) of dose response curve; acetylcholine added at 20% of maximum response; CHO-K1 human M4/Gαqi5, FLIPR Tetra
Outline: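 CHO-K1 cells were loaded with calcium dye at 37 °C for ~1 h. Fluorescence (ex 470–495/em 515–575 nm) was read for 4 min after test compound at increasing concentrations, then 3.5 min after acetylcholine at an EC20; sometimes a third addition at EC70 followed. The value is the inflection point of a 4-parameter logistic fit.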

| EC50 | SMILES |
| --- | --- |
| 3410 nM | COc1ccc(OC2CCN(c3nc(C(=O)N[C@@H]4CCCc5ccccc54)nc(Cl)c3C)CC2)cn1 [Example 223, (R)-4-chloro-6-(4-((6-methoxypyridin-3-yl)oxy)piperidin-1-yl)-5-methyl-N-(1,2,3,4-tetrahydronaphthalen-1-yl)pyrimidine-2-carboxamide] |
| 4850 nM | COc1ccc(OC2CCN(c3nc(C(=O)N[C@H]4CCCc5ccccc54)nc(Cl)c3C)CC2)cn1 [Example 224, (S)-4-chloro-6-(4-((6-methoxypyridin-3-yl)oxy)piperidin-1-yl)-5-methyl-N-(1,2,3,4-tetrahydronaphthalen-1-yl)pyrimidine-2-carboxamide] |
| 321 nM | COc1ccc(OC2CCN(c3nc(C(=O)NCc4cnsc4)nc(Cl)c3C)CC2)cn1 [Example 225, 4-chloro-N-(isothiazol-4-ylmethyl)-6-(4-((6-methoxypyridin-3-yl)oxy)piperidin-1-yl)-5-methylpyrimidine-2-carboxamide] |
| 62 nM | COc1ccc(OC2CCN(c3nc(C(N)=O)nc(Br)c3C)CC2)cn1 [Example 225A, 4-bromo-6-(4-((6-methoxypyridin-3-yl)oxy)piperidin-1-yl)-5-methylpyrimidine-2-carboxamide] |
| 231 nM | COc1ccc(OC2CCN(c3nc(S(C)(=O)=O)nc(Cl)c3C)CC2)cn1 [Example 226, 4-Chloro-6-(4-((6-methoxypyridin-3-yl)oxy)piperidin-1-yl)-5-methyl-2-(methylsulfonyl)pyrimidine] |
| 55 nM | COc1ccc(OC2CCN(c3nc(OC)nc(Cl)c3C)CC2)cn1 [Example 227, 4-Chloro-2-methoxy-6-(4-((6-methoxypyridin-3-yl)oxy)piperidin-1-yl)-5-methylpyrimidine] |
| 156 nM | COc1ccc(OC2CCN(c3nc(NCCO)nc(Cl)c3C)CC2)cn1 [Example 228, 2-((4-Chloro-6-(4-((6-methoxypyridin-3-yl)oxy)piperidin-1-yl)-5-methylpyrimidin-2-yl)amino)ethan-1-ol] |
| 807 nM | COc1ccc(OC2CCN(c3ncnc(N4CCc5scnc5C4)c3C)CC2)cn1 [Example 229, 5-(6-(4-((6-methoxypyridin-3-yl)oxy)piperidin-1-yl)-5-methylpyrimidin-4-yl)-4,5,6,7-tetrahydrothiazolo[4,5-c]pyridine] |
| 1040 nM | COc1ccc(OC2CCN(c3ncnc(N4C[C@H](F)[C@@H](F)C4)c3C)CC2)cn1 [Example 230, 4-((3S,4S)-3,4-difluoropyrrolidin-1-yl)-6-(4-((6-methoxypyridin-3-yl)oxy)piperidin-1-yl)-5-methylpyrimidine] |
| 1090 nM | COc1ccc(OC2CCN(c3ncnc(N4CCC(F)(F)C4)c3C)CC2)cn1 [Example 231, 4-(3,3-difluoropyrrolidin-1-yl)-6-(4-((6-methoxypyridin-3-yl)oxy)piperidin-1-yl)-5-methylpyrimidine] |
| 1490 nM | COc1ccc(OC2CCN(c3ncnc(N4Cc5cccnc5C4)c3C)CC2)cn1 [Example 232, 6-(6-(4-((6-methoxypyridin-3-yl)oxy)piperidin-1-yl)-5-methylpyrimidin-4-yl)-6,7-dihydro-5H-pyrrolo[3,4-b]pyridine] |
| 2100 nM | COc1ccc(OC2CCN(c3ncnc(N4CC5(COC5)C4)c3C)CC2)cn1 [Example 233, 6-(6-(4-((6-methoxypyridin-3-yl)oxy)piperidin-1-yl)-5-methylpyrimidin-4-yl)-2-oxa-6-azaspiro[3.3]heptane] |
| 134 nM | CNc1ncnc(N2CCC(Oc3ccc(OC)nc3)CC2)c1C [Example 234, 6-(4-((6-methoxypyridin-3-yl)oxy)piperidin-1-yl)-N,5-dimethylpyrimidin-4-amine] |
| 248 nM | COc1ccc(OC2CCN(c3nc(O)nc(Cl)c3C)CC2)cn1 [Example 235, 4-chloro-6-(4-((6-methoxypyridin-3-yl)oxy)piperidin-1-yl)-5-methylpyrimidin-2-ol] |
| 228 nM | COc1ccc(OC2CCN(c3ncnc(N4CC(F)(F)C4)c3C)CC2)cn1 [Example 236, 4-(3,3-difluoroazetidin-1-yl)-6-(4-((6-methoxypyridin-3-yl)oxy)piperidin-1-yl)-5-methylpyrimidine] |
| 1820 nM | COc1ccc(OC2CCN(c3ncnc(N4CCCC4)c3C)CC2)cn1 [Example 237, 4-(4-((6-methoxypyridin-3-yl)oxy)piperidin-1-yl)-5-methyl-6-(pyrrolidin-1-yl)pyrimidine] |
| 3060 nM | COc1ccc(OC2CCN(c3ncnc(N4CC5CC4CO5)c3C)CC2)cn1 (stereo not drawn) [Example 238, 5-(6-(4-((6-methoxypyridin-3-yl)oxy)piperidin-1-yl)-5-methylpyrimidin-4-yl)-2-oxa-5-azabicyclo[2.2.1]heptane] |
| 3200 nM | COc1ccc(OC2CCN(c3ncnc(NCCC(F)(F)F)c3C)CC2)cn1 [Example 239, 6-(4-((6-methoxypyridin-3-yl)oxy)piperidin-1-yl)-5-methyl-N-(3,3,3-trifluoropropyl)pyrimidin-4-amine] |

| EC50 | SMILES |
| --- | --- |
| 413 nM | COc1ccc(OC2CCN(c3ncnc(N(C)CCc4ccccn4)c3C)CC2)cn1 [Example 240, 6-(4-((6-methoxypyridin-3-yl)oxy)piperidin-1-yl)-N,5-dimethyl-N-(2-(pyridin-2-yl)ethyl)pyrimidin-4-amine] |
| 42 nM | COc1ccc(OC2CCN(c3nc(CO)nc(C)c3C)CC2)cn1 [Example 241, (4-(4-((6-Methoxypyridin-3-yl)oxy)piperidin-1-yl)-5,6-dimethylpyrimidin-2-yl)methanol] |
| 143 nM | COc1ccc(OC2CCN(c3ncnc(C)c3C)CC2)cn1 [Example 242, 4-(4-((6-methoxypyridin-3-yl)oxy)piperidin-1-yl)-5,6-dimethylpyrimidine] |
| 342 nM | C=Cc1ncnc(N2CCC(Oc3ccc(OC)nc3)CC2)c1C [Example 243, 4-(4-((6-methoxypyridin-3-yl)oxy)piperidin-1-yl)-5-methyl-6-vinylpyrimidine] |
| 461 nM | Cc1c(-c2cccnc2)ncnc1N1CCC(Oc2cccc(C#N)c2)CC1 [Example 244, 3-((1-(5-methyl-6-(pyridin-3-yl)pyrimidin-4-yl)piperidin-4-yl)oxy)benzonitrile] |
| 484 nM | C=Cc1ncnc(N2CCC(Oc3cccc(C#N)c3)CC2)c1C [Example 245, 3-((1-(5-methyl-6-vinylpyrimidin-4-yl)piperidin-4-yl)oxy)benzonitrile] |
| 633 nM | COc1ccc(OC2CCN(c3ncnc(-c4ccc(F)nc4)c3C)CC2)cn1 [Example 246, 4-(6-fluoropyridin-3-yl)-6-(4-((6-methoxypyridin-3-yl)oxy)piperidin-1-yl)-5-methylpyrimidine] |
| 1130 nM | Cc1cncc(-c2ncnc(N3CCC(Oc4cccc(C#N)c4)CC3)c2C)c1 [Example 247, 3-((1-(5-methyl-6-(5-methylpyridin-3-yl)pyrimidin-4-yl)piperidin-4-yl)oxy)benzonitrile] |
| 1550 nM | CCCc1ncnc(N2CCC(Oc3ccc(OC)nc3)CC2)c1C [Example 248, 4-(4-((6-methoxypyridin-3-yl)oxy)piperidin-1-yl)-5-methyl-6-propylpyrimidine] |
| 925 nM | Cc1c(-c2ccoc2)ncnc1N1CCC(Oc2cccc(C#N)c2)CC1 [Example 249, 3-((1-(6-(furan-3-yl)-5-methylpyrimidin-4-yl)piperidin-4-yl)oxy)benzonitrile] |
| 1130 nM | Cc1c(-c2ccc3c(c2)OCCO3)ncnc1N1CCC(Oc2cccc(C#N)c2)CC1 [Example 250, 3-((1-(6-(2,3-dihydrobenzo[b][1,4]dioxin-6-yl)-5-methylpyrimidin-4-yl)piperidin-4-yl)oxy)benzonitrile] |
| 1440 nM | COc1ccc(OC2CCN(c3ncnc(-c4cccnc4)c3C)CC2)cn1 [Example 251, 4-(4-((6-methoxypyridin-3-yl)oxy)piperidin-1-yl)-5-methyl-6-(pyridin-3-yl)pyrimidine] |
| 1710 nM | COc1ccc(OC2CCN(c3ncnc(-c4ccoc4)c3C)CC2)cn1 [Example 252, 4-(furan-3-yl)-6-(4-((6-methoxypyridin-3-yl)oxy)piperidin-1-yl)-5-methylpyrimidine] |
| 1740 nM | Cc1c(-c2ccc3c(=O)nc[nH]c3c2)ncnc1N1CCC(Oc2cccc(C#N)c2)CC1 [Example 253, 3-((1-(5-methyl-6-(4-oxo-1,4-dihydroquinazolin-7-yl)pyrimidin-4-yl)piperidin-4-yl)oxy)benzonitrile] |
| 2470 nM | Cc1c(-c2ccc(F)cc2)ncnc1N1CCC(Oc2cccc(C#N)c2)CC1 [Example 254, 3-((1-(6-(4-fluorophenyl)-5-methylpyrimidin-4-yl)piperidin-4-yl)oxy)benzonitrile] |
| 2520 nM | COc1ccc(OC2CCN(c3ncnc(CC(C)C)c3C)CC2)cn1 [Example 255, 4-isobutyl-6-(4-((6-methoxypyridin-3-yl)oxy)piperidin-1-yl)-5-methylpyrimidine] |
| 2630 nM | CCCCc1ncnc(N2CCC(Oc3ccc(OC)nc3)CC2)c1C [Example 256, 4-butyl-6-(4-((6-methoxypyridin-3-yl)oxy)piperidin-1-yl)-5-methylpyrimidine] |
| 2700 nM | COc1ccc(OC2CCN(c3ncnc(-c4ccc(F)cc4)c3C)CC2)cn1 [Example 257, 4-(4-fluorophenyl)-6-(4-((6-methoxypyridin-3-yl)oxy)piperidin-1-yl)-5-methylpyrimidine] |
